We go through 2 molecules from ChEMBL document CHEMBL2390946, “Discovery of TAK-960: an orally available small molecule inhibitor of polo-like kinase 1 (PLK1)” (Bioorg Med Chem Lett, 2013).

Molecules are shown by their SMILES.

Common to all, as to format: ADME, organism-based
A short description of series [1]: Half life in rat at 1 mg/kg, iv and 5 mg/kg, po. To be noted: in vivo.
Series [2] is described as follows: Oral bioavailability in rat at 5 mg/kg. The note with it: in vivo.
A short description of series [3]: Clearance in rat at 1 mg/kg, iv and 5 mg/kg, po. To be noted: in vivo.
Series [4] is described as follows: Volume of distribution at steady state in rat at 1 mg/kg, iv and 5 mg/kg, po. To be noted: in vivo, read-out: Vdss.

A word on the half-life: it is the time in which the quantity being followed falls by half. The term bioavailability denotes the share of a dose that reaches the circulation, judged against a reference dose that is usually intravenous. Read a low bioavailability as little systemic uptake. Regarding `COc1cc(C(=O)NC2CCN(C)CC2)ccc1Nc1ncc2c(n1)N(C1CCCC1)CC(F)(F)C(=O)N2C`, the half-life in series [1] was 3.3 h. Moreover, the bioavailability in series [2] worked out at 11%. The same molecule had a clearance in series [3] of 51 mL/min/kg. Also, the Vd in series [4] amounted to 19.6 L/kg.

Molecule `COc1cc(C(=O)NC2CCN(C)CC2)c(F)cc1Nc1ncc2c(n1)N(C1CCCC1)CC(F)(F)C(=O)N2C` [TAK-960] had a half-life in series [1] of 5.4 h. Besides, the bioavailability in series [2] is 54%. Further, in series [3], the clearance was found to be 42 mL/min/kg. Further, the Vd in series [4] was 13.7 L/kg.
